Results from the supplement of paper PMC13380429.

How the values were obtained:
Settings in all cases: 72 h
[1] = tested on: Calu-3; assay: relative viability EC50 (midpoint between 100% and the lowest measured viability); higher = less toxic
[2] = tested on: Vero E6; assay: as above
[3] = tested on: Caco-2; assay: as above
[4] = tested on: U2OS; assay: as above
[5] = tested on: HepG2; assay: as above
[6] = tested on: Calu-3; assay: drug sensitivity score (DSS) for viability; higher = more toxic; extreme values may be limits of the assay
[7] = tested on: Vero E6; assay: as above
[8] = tested on: Caco-2; assay: as above
[9] = tested on: U2OS; assay: as above
[10] = tested on: HepG2; assay: as above
[11] = tested on: Calu-3; assay: cell viability relative to DMSO; higher = less toxic
[12] = tested on: Vero E6; assay: as above
[13] = tested on: Caco-2; assay: as above
[14] = tested on: U2OS; assay: as above
[15] = tested on: HepG2; assay: as above

[O-][n+]1cccc(CO)c1 [mepiroxol]
relative viability EC50 [1]: > 10 µM | relative viability EC50 [2]: > 10 µM | relative viability EC50 [3]: > 10 µM | relative viability EC50 [4]: > 10 µM | relative viability EC50 [5]: > 10 µM | drug sensitivity score [6]: 0 | drug sensitivity score [7]: 0 | drug sensitivity score [8]: 0 | drug sensitivity score [9]: 0 | drug sensitivity score [10]: 0 | cell viability ([11]; 1 nM): 103% | cell viability ([11]; 10 nM): 112% | cell viability ([11]; 100 nM): 99.4% | cell viability ([11]; 1000 nM): 109% | cell viability ([11]; 10000 nM): 104% | cell viability ([12]; 1 nM): 92.1% | cell viability ([12]; 10 nM): 97.9% | cell viability ([12]; 100 nM): 89.3% | cell viability ([12]; 1000 nM): 98.9% | cell viability ([12]; 10000 nM): 108% | cell viability ([13]; 1 nM): 97.3% | cell viability ([13]; 10 nM): 95.1% | cell viability ([13]; 100 nM): 94.3% | cell viability ([13]; 1000 nM): 104% | cell viability ([13]; 10000 nM): 103% | cell viability ([14]; 1 nM): 100% | cell viability ([14]; 10 nM): 99.2% | cell viability ([14]; 100 nM): 104% | cell viability ([14]; 1000 nM): 99.2% | cell viability ([14]; 10000 nM): 99.2% | cell viability ([15]; 1 nM): 90.9% | cell viability ([15]; 10 nM): 118% | cell viability ([15]; 100 nM): 104% | cell viability ([15]; 1000 nM): 96.3% | cell viability ([15]; 10000 nM): 97%

CC(=O)/N=c1/sc(S(N)(=O)=O)nn1C [methazolamide]
relative viability EC50 [1]: > 10 µM | relative viability EC50 [2]: > 10 µM | relative viability EC50 [3]: > 10 µM | relative viability EC50 [4]: > 10 µM | relative viability EC50 [5]: > 10 µM | drug sensitivity score [6]: 0 | drug sensitivity score [7]: 0 | drug sensitivity score [8]: 0 | drug sensitivity score [9]: 0 | drug sensitivity score [10]: 0 | cell viability ([11]; 1 nM): 100% | cell viability ([11]; 10 nM): 99.4% | cell viability ([11]; 100 nM): 93.7% | cell viability ([11]; 1000 nM): 98.3% | cell viability ([11]; 10000 nM): 107% | cell viability ([12]; 1 nM): 97% | cell viability ([12]; 10 nM): 99% | cell viability ([12]; 100 nM): 98.2% | cell viability ([12]; 1000 nM): 98.4% | cell viability ([12]; 10000 nM): 92.7% | cell viability ([13]; 1 nM): 110% | cell viability ([13]; 10 nM): 101% | cell viability ([13]; 100 nM): 100% | cell viability ([13]; 1000 nM): 94% | cell viability ([13]; 10000 nM): 96.7% | cell viability ([14]; 1 nM): 105% | cell viability ([14]; 10 nM): 107% | cell viability ([14]; 100 nM): 104% | cell viability ([14]; 1000 nM): 98.3% | cell viability ([14]; 10000 nM): 102% | cell viability ([15]; 1 nM): 101% | cell viability ([15]; 10 nM): 97.6% | cell viability ([15]; 100 nM): 101% | cell viability ([15]; 1000 nM): 101% | cell viability ([15]; 10000 nM): 102%

COc1cccc(OC)c1C(=O)N[C@@H]1C(=O)N2[C@@H]1SC(C)(C)[C@@H]2C(=O)O [methicillin]
relative viability EC50 [1]: > 10 µM | relative viability EC50 [2]: > 10 µM | relative viability EC50 [3]: > 10 µM | relative viability EC50 [4]: > 10 µM | relative viability EC50 [5]: > 10 µM | drug sensitivity score [6]: 0 | drug sensitivity score [7]: 0 | drug sensitivity score [8]: 0 | drug sensitivity score [9]: 0 | drug sensitivity score [10]: 0 | cell viability ([11]; 1 nM): 105% | cell viability ([11]; 10 nM): 99.1% | cell viability ([11]; 100 nM): 97% | cell viability ([11]; 1000 nM): 99.1% | cell viability ([11]; 10000 nM): 102% | cell viability ([12]; 1 nM): 107% | cell viability ([12]; 10 nM): 98.6% | cell viability ([12]; 100 nM): 94.9% | cell viability ([12]; 1000 nM): 102% | cell viability ([12]; 10000 nM): 87.9% | cell viability ([13]; 1 nM): 95.2% | cell viability ([13]; 10 nM): 97.2% | cell viability ([13]; 100 nM): 101% | cell viability ([13]; 1000 nM): 91.4% | cell viability ([13]; 10000 nM): 96.5% | cell viability ([14]; 1 nM): 105% | cell viability ([14]; 10 nM): 94.7% | cell viability ([14]; 100 nM): 99.6% | cell viability ([14]; 1000 nM): 99% | cell viability ([14]; 10000 nM): 99.8% | cell viability ([15]; 1 nM): 96% | cell viability ([15]; 10 nM): 96.1% | cell viability ([15]; 100 nM): 87% | cell viability ([15]; 1000 nM): 106% | cell viability ([15]; 10000 nM): 107%

CC[C@@H](CO)NC(=O)[C@@H]1C=C2c3cccc4[nH]cc(c34)C[C@H]2N(C)C1 [methylergometrine]
relative viability EC50 [1]: > 10 µM | relative viability EC50 [2]: > 10 µM | relative viability EC50 [3]: > 10 µM | relative viability EC50 [4]: > 10 µM | relative viability EC50 [5]: > 10 µM | drug sensitivity score [6]: 1.1 | drug sensitivity score [7]: 0 | drug sensitivity score [8]: 0 | drug sensitivity score [9]: 0 | drug sensitivity score [10]: 0 | cell viability ([11]; 1 nM): 96.9% | cell viability ([11]; 10 nM): 98.3% | cell viability ([11]; 100 nM): 99.4% | cell viability ([11]; 1000 nM): 86.2% | cell viability ([11]; 10000 nM): 91.2% | cell viability ([12]; 1 nM): 106% | cell viability ([12]; 10 nM): 101% | cell viability ([12]; 100 nM): 100% | cell viability ([12]; 1000 nM): 102% | cell viability ([12]; 10000 nM): 99.8% | cell viability ([13]; 1 nM): 97.6% | cell viability ([13]; 10 nM): 98% | cell viability ([13]; 100 nM): 96.2% | cell viability ([13]; 1000 nM): 96.7% | cell viability ([13]; 10000 nM): 99.5% | cell viability ([14]; 1 nM): 96.2% | cell viability ([14]; 10 nM): 99.1% | cell viability ([14]; 100 nM): 102% | cell viability ([14]; 1000 nM): 98.5% | cell viability ([14]; 10000 nM): 104% | cell viability ([15]; 1 nM): 98.6% | cell viability ([15]; 10 nM): 102% | cell viability ([15]; 100 nM): 97.5% | cell viability ([15]; 1000 nM): 110% | cell viability ([15]; 10000 nM): 93.6%

CCN1C[C@]2(COC(=O)c3ccccc3N3C(=O)C[C@H](C)C3=O)CC[C@H](OC)[C@@]34[C@@H]5C[C@H]6[C@H](OC)[C@@H]5[C@](O)(C[C@@H]6OC)[C@](O)([C@@H](OC)[C@H]23)[C@@H]14 [methyllycaconitine]
relative viability EC50 [1]: > 10 µM | relative viability EC50 [2]: > 10 µM | relative viability EC50 [3]: > 10 µM | relative viability EC50 [4]: > 10 µM | relative viability EC50 [5]: > 10 µM | drug sensitivity score [6]: 0 | drug sensitivity score [7]: 0 | drug sensitivity score [8]: 0 | drug sensitivity score [9]: 0 | drug sensitivity score [10]: 0 | cell viability ([11]; 1 nM): 97.3% | cell viability ([11]; 10 nM): 102% | cell viability ([11]; 100 nM): 90.3% | cell viability ([11]; 1000 nM): 91.1% | cell viability ([11]; 10000 nM): 98.6% | cell viability ([12]; 1 nM): 104% | cell viability ([12]; 10 nM): 102% | cell viability ([12]; 100 nM): 101% | cell viability ([12]; 1000 nM): 102% | cell viability ([12]; 10000 nM): 97.8% | cell viability ([13]; 1 nM): 108% | cell viability ([13]; 10 nM): 96.1% | cell viability ([13]; 100 nM): 103% | cell viability ([13]; 1000 nM): 97% | cell viability ([13]; 10000 nM): 98.1% | cell viability ([14]; 1 nM): 97.1% | cell viability ([14]; 10 nM): 94.5% | cell viability ([14]; 100 nM): 95.8% | cell viability ([14]; 1000 nM): 96.3% | cell viability ([14]; 10000 nM): 94.7% | cell viability ([15]; 1 nM): 96.3% | cell viability ([15]; 10 nM): 102% | cell viability ([15]; 100 nM): 99.4% | cell viability ([15]; 1000 nM): 95.2% | cell viability ([15]; 10000 nM): 101%

O=C(O)[C@H]1CN(C/C=C/P(=O)(O)O)CCN1 [midafotel]
relative viability EC50 [1]: > 10 µM | relative viability EC50 [2]: > 10 µM | relative viability EC50 [3]: > 10 µM | relative viability EC50 [4]: > 10 µM | relative viability EC50 [5]: > 10 µM | drug sensitivity score [6]: 0 | drug sensitivity score [7]: 0 | drug sensitivity score [8]: 0 | drug sensitivity score [9]: 0 | drug sensitivity score [10]: 0 | cell viability ([11]; 1 nM): 97.6% | cell viability ([11]; 10 nM): 94.8% | cell viability ([11]; 100 nM): 105% | cell viability ([11]; 1000 nM): 111% | cell viability ([11]; 10000 nM): 97.4% | cell viability ([12]; 1 nM): 95.5% | cell viability ([12]; 10 nM): 93.9% | cell viability ([12]; 100 nM): 95.6% | cell viability ([12]; 1000 nM): 91.9% | cell viability ([12]; 10000 nM): 106% | cell viability ([13]; 1 nM): 102% | cell viability ([13]; 10 nM): 101% | cell viability ([13]; 100 nM): 97.4% | cell viability ([13]; 1000 nM): 102% | cell viability ([13]; 10000 nM): 98.3% | cell viability ([14]; 1 nM): 96.3% | cell viability ([14]; 10 nM): 104% | cell viability ([14]; 100 nM): 99% | cell viability ([14]; 1000 nM): 103% | cell viability ([14]; 10000 nM): 106% | cell viability ([15]; 1 nM): 97.5% | cell viability ([15]; 10 nM): 94% | cell viability ([15]; 100 nM): 104% | cell viability ([15]; 1000 nM): 93.1% | cell viability ([15]; 10000 nM): 107%

CCOC(=O)[C@H](CCc1ccccc1)N[C@@H](C)C(=O)N1Cc2cc(OC)c(OC)cc2C[C@H]1C(=O)O [moexipril]
relative viability EC50 [1]: > 10 µM | relative viability EC50 [2]: > 10 µM | relative viability EC50 [3]: > 10 µM | relative viability EC50 [4]: > 10 µM | relative viability EC50 [5]: > 10 µM | drug sensitivity score [6]: 0 | drug sensitivity score [7]: 0 | drug sensitivity score [8]: 0 | drug sensitivity score [9]: 0 | drug sensitivity score [10]: 0 | cell viability ([11]; 1 nM): 97% | cell viability ([11]; 10 nM): 97% | cell viability ([11]; 100 nM): 107% | cell viability ([11]; 1000 nM): 111% | cell viability ([11]; 10000 nM): 104% | cell viability ([12]; 1 nM): 96.2% | cell viability ([12]; 10 nM): 102% | cell viability ([12]; 100 nM): 96.6% | cell viability ([12]; 1000 nM): 96.9% | cell viability ([12]; 10000 nM): 102% | cell viability ([13]; 1 nM): 106% | cell viability ([13]; 10 nM): 96% | cell viability ([13]; 100 nM): 101% | cell viability ([13]; 1000 nM): 89.3% | cell viability ([13]; 10000 nM): 98.2% | cell viability ([14]; 1 nM): 96% | cell viability ([14]; 10 nM): 102% | cell viability ([14]; 100 nM): 92.8% | cell viability ([14]; 1000 nM): 100% | cell viability ([14]; 10000 nM): 95.7% | cell viability ([15]; 1 nM): 95.8% | cell viability ([15]; 10 nM): 98.6% | cell viability ([15]; 100 nM): 96% | cell viability ([15]; 1000 nM): 95.5% | cell viability ([15]; 10000 nM): 92.2%
